The subject of test [1] is primary human T-cells. The experiment in a line: IL2 secretion measurements in CD3-stimulated T-cells. The format is cell-based. The settings on record: Homo sapiens, T-cell, 24 h, CD3 condition; for Emax: IL2 after 24 hours, 20 μM reference compound A1 = 100%, read-out: Emax IL2 (% activation); for EC50: IL2 secretion after 24 hours, read-out: Tcell IL2 CD3 EC50. As to the method: As readouts for T-cell activation, IL2 secretion after 24 hours and proliferation after 5 days was measured. Increases in IL2 secretion and proliferation upon compound treatment were assessed as the % of the maximum of reference compound A1. WO 2016/139181 discloses reference compound A1 as example 70. As a counter screen and to make sure that no unwanted TCR-independent activation was triggered, PBS conditions were run for all compounds.
Expanded primary human T-cells were thawed and cultured in RPMI 1640 (Gibco, #61870-010)+5% human serum (HS, Sigma, #H3667)+1 mM Sodium Pyruvate (Gibco, #11360-039)+50 μM 2-mercaptoethanol (Gibco, #31350-010) and 1× Pen-Strep (Life Technologies, #15140122) medium at density of 2 Mio/ml for 3 hours in 5% CO2, 37° C. and 95% humidity. For coating of plates, […] or PBS++ with CD3 antibody (concentration depending on donor and determined by CD3 titrations) was added 100 μl/well to Poly-D Lysine coated 96-well plates. Plates were sealed and incubated at room temperature for 3 hours on a table-top rocking platform. After incubation, plates were washed once with PBS−− and filled with 40 μl/well culture medium only. Compounds were then added (see next section) to medium only plates. After 3 hours of culturing the T-cells, cells were filtered through a cell strainer (Miltenyi Biotech, #130-041-407), counted again and concentration was adjusted to 1.25 Mio/ml.
Cells were then seeded 80 μl/well to the 40 μl/well including dispensed compounds according to plate layout. By adding cells, compounds were further diluted 1:3, and resulting in 100k cells/120 µl/well. After 24 hours 40 μl of supernatant was collected carefully from the top while not disturbing the cells and transferred into a round bottom 96 well plate. Collected and frozen supernatant was used for detection of IL2 using the IL-2 Human ProQuantum Immunoassay Kit (Invitrogen) or using the Human IL-2 ELISA Kit (Thermo Fisher).
(§1) Compound Treatment Compounds were added in a 5 or 6 pt dose response with the Tecan D300e Digital Dispenser, all conditions 3 times more concentrated than the end-concentration, since cells are added afterwards (80p1 cells to 40p1 prepared medium with treatment). The DR was starting at 20 μM or 10 μM final top concentration and a dilution factor of 3.333. The positive control was the reference compound A1 that was added in a dose response as well, additionally to 3 wells of only 20 μM representing the positive stimulator control. All wells were normalized with DMSO to a final concentration of 0.6% (0.2% end-concentration).
The immunoassay is done following the manufacturer's manual (Invitrogen, #A35603).
Additional information: For the immunoassay, MicroAmp™ EnduraPlate™ Optical 384-Well plates are used. Frozen supernatant is thawed and centrifuged for 5 minutes at 1000×g, both steps at 4° C. After centrifugation, required sample amount is taken from the top, and in a separate LightCycler V-bottom plate (working plate) diluted with assay dilution buffer, dilution factor depending on the PBS or CD3 condition but at least 1:3. IL-2 standard and blanks are prepared in the same V-bottom plate, standard with a range of 0.0128-5000 pg/ml (extended version). After preparation, 5 μl of sample dilutions or standard/blanks are transferred to the optical 384-well plate (assay plate) and the 10 μl reaction protocol is being followed. For measurement, the QuantStudio 12K Flex system is used. Raw data is extracted and IL-2 concentrations are calculated with the Thermo Fisher online app (apps.thermofisher.com/apps/proquantum).
ELISA is done following the manufacturer's manual (Thermo Fisher Scientific, #88-7025-88). Additional information: For the ELISA Nunc MaxiSorp 96 well plates are used. Frozen supernatant is thawed and centrifuged for 5 minutes at 1000×g, both steps at 4° C. […]

The target of another test is DGKalpha (Homo sapiens, UniProt P23743). Description: In vitro DGK inhibition assay (ADP-Glo, liposomes), DGKalpha. Format: biochemical. Details: hDGKalpha(1-735)-N-His; His (N); made in house; host or cells: Sf21 insect cells (baculovirus). Particulars: 4 nM DGK α, 25 μM ATP, 125 uM DLG in liposomes, 1 hour reaction. As to the method: (§2) DGK α and ζ kinases use ATP to phosphorylate the substrate 1,2-dilauroyl-sn-glycerol (DLG, incorporated in the liposomes). ATP is converted to ADP as a result of this enzymatic reaction. After the kinase reaction, an ATP-depletion reagent is added to terminate the kinase reaction and deplete any remaining ATP, leaving only ADP. Second, a detection reagent is added to simultaneously convert ADP to ATP and allow the newly synthesized ATP to be converted to light using a coupled luciferase/luciferin reaction.
Sequence of DGKalpha (P23743 whole entry): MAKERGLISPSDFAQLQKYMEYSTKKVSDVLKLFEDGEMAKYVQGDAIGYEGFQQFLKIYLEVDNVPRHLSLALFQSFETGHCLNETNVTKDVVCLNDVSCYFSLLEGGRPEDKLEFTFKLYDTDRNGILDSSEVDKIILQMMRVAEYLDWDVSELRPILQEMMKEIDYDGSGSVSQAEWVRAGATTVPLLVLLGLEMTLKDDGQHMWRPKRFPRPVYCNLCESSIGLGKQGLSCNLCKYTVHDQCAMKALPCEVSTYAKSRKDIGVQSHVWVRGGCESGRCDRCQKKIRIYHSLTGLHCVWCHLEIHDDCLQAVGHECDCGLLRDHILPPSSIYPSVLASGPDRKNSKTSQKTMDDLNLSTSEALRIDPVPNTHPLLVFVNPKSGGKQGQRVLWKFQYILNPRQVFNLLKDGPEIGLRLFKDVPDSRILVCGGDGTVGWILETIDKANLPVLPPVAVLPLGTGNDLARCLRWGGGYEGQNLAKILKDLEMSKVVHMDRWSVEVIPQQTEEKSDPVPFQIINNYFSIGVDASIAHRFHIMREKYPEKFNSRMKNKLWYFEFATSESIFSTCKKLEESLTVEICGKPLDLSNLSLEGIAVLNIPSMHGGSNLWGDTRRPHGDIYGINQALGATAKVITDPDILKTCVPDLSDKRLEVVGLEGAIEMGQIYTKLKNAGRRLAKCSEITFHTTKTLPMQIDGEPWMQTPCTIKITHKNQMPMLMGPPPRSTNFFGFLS
Full length DGKA and Z were expressed in Sf21 insect cells by infecting the cells with the baculovirus stock at MOI of 2. Purification of both enzymes was performed as previously described by Takahashi et al., PeerJ, 2018 (Takahashi, D.; Sakane, F. Expression and purification of human diacylglycerol kinase alpha from baculovirus-infected insect cells for structural studies. PeerJ 2018, 6, No. e5449).
(§3) A concentrated liposome solution was prepared in assay buffer without DTT and BSA: 2 mM of DLG in 21 mM of total liposome (2 mM DLG/8 mM PS/11 mM PC). The reaction mixtures contain the assay buffer with a final DLG concentration of 125 uM ATP concentrations of 25 μM (for DGKA assay) or 50 μM (for DGKZ assay). The reactions were started by addition of DGK a and (kinases at 4 nM and 2 nM final concentrations, respectively. After 1 hour reaction, the amount of ADP formed was detected with the ADP-Glo kinase assay (Promega) according to the manufacturer instructions. Compounds were added in 11-points dose response, starting at […], 1:3 dilutions, with a final DMSO concentration of 2%. The multidrop combi was used as a liquid handler and luminescence was read with 0.5 s by the envision reader (PE).
Background: ADP-Glo first removes unused ATP, then detects ADP through luciferase.

The next test concerns the target DGKzeta (Homo sapiens, UniProt Q13574). The experiment in a line: In vitro DGK inhibition assay (ADP-Glo, liposomes), DGKzeta. The settings on record: 2 nM DGK ζ, 50 μM ATP, 125 uM DLG in liposomes, 1 hour reaction. Details: hDGKzeta(1-928)-N-His; His (N); made in house; host or cells: Sf21 insect cells (baculovirus). The format is biochemical. As to the method:
as §2
Purification of both enzymes was performed as previously described by Takahashi et al., PeerJ, 2018 (Takahashi, D.; Sakane, F. Expression and purification of human diacylglycerol kinase alpha from baculovirus-infected insect cells for structural studies. PeerJ 2018, 6, No. e5449).
as §3

Test [2] deals with primary human T-cells. The experiment in a line: T-cell proliferation assay (CellTiter-Glo). The format is cell-based. Particulars: Homo sapiens, T-cell, 120 h, CD3 condition; for Emax: 5 days, 20 μM reference compound A1 = 100%, read-out: Emax proliferation (% activation); for EC50: proliferation after 5 days, CellTiter-Glo, read-out: Tcell Proliferation CD3 EC50. On the procedure: Expanded primary human T-cells are thawed and cultured in RPMI 1640 (Gibco, #61870-010)+5% human serum (HS, Sigma, #H3667)+1 mM Sodium Pyruvate (Gibco, #11360-039)+50 μM 2-mercaptoethanol (Gibco, #31350-010) and 1× Pen-Strep (Life Technologies, #15140122) medium at density of 2 Mio/ml for 3 hours in 5% CO2, 37° C. and 95% humidity. For coating of plates, PBS++ only or PBS++ with CD3 antibody (concentration depending on donor and determined by CD3 titrations) is added 100 μl/well to Poly-D Lysine coated 96-well plates. Plates are sealed and incubated at room temperature for 3 hours on a table-top rocking platform. After incubation, plates are washed once with PBS−− and filled with 40 μl/well culture medium only. Compounds are then added (see next section) to medium only plates. After 3 hours of culturing the T-cells, cells are filtered through a cell strainer (Miltenyi Biotech, #130-041-407), counted again and concentration is adjusted to 1.25 Mio/ml.
Cells are then seeded 80 μl/well to the 40 µl/well including dispensed compounds according to plate layout. By adding cells, compounds are further diluted 1:3, and resulting in 100k cells/120 µl/well. After 48 hours 40 μl of supernatant is collected carefully from the top while not disturbing the cells. Cells are assessed for proliferation 5 days later by measuring […] using CellTiterGlo (Promega).
as §1, with “Compounds” for “Compound Treatment Compounds”
After 5 days, for detection of ATP which is directly proportional to the number of cells present per well, the CellTiter-Glo® 2.0 Reagent is used. After visual control for toxicity or precipitations of the tested compounds, the plates are equilibrated to room temperature for 45 minutes. CellTiter-Glo® 2.0 Reagent is equilibrated to room temperature as well. After equilibration, an equal amount of CellTiter-Glo reagent is added to the cells (80 µl/well) with an electronic multichannel pipette. Plates are placed on a rocking platform for 15 minutes at room temperature. After incubation, the bottom of the plates is sealed with backing tape. Luminescence is measured with PHERAstar FSX (interval time 0.5 sec, gain 3000, focal height 15 mm) and exported as CSV file for analysis in Genedata screener.
Calculations and Data Reporting CD3 and PBS plates were analysed separately in Genedata Screener using Roche Normalization PCT_POS_CTRL with DMSO set as Neutral Control and 20 μM of the reference compound A1 set as Stimulator Control/100%.
For CD3 conditions EC50 and Emax of the fitted sigmoidal curve were reported. If no curve could be fitted, the EC50 was reported as blank field and the Emax was based on individual data points. […] Compounds which activate unstimulated cells (see IL2 measurements) or compounds which negatively affected viability were flagged.
On the technique in general: ATP-based viability assays read luminescence as a measure of living cells.

SMILES strings stand for the structures.

Sequence of DGKzeta (Q13574 whole entry): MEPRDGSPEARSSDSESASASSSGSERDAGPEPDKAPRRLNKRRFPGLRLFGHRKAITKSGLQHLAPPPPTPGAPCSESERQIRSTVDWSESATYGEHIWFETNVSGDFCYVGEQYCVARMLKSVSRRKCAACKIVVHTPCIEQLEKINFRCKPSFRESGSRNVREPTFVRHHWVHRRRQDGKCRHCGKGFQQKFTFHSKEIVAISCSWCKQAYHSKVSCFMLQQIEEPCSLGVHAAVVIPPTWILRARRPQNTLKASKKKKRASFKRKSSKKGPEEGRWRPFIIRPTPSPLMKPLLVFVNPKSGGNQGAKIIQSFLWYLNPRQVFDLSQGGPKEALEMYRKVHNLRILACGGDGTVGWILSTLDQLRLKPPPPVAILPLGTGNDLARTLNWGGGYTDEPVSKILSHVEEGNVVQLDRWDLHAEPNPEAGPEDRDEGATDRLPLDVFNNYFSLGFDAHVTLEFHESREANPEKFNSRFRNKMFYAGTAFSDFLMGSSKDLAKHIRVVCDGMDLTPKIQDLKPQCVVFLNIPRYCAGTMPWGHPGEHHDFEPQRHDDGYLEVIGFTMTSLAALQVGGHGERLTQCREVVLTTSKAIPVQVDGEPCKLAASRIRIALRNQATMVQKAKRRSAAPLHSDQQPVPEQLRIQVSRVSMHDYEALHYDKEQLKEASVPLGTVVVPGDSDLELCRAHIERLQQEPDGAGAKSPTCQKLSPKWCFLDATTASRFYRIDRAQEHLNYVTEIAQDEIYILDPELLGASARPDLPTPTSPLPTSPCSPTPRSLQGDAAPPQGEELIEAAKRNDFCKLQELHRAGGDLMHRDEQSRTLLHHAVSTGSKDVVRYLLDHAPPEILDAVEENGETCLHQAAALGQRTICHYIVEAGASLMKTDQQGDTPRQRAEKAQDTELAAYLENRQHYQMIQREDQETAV

Turning to `CC(C)(c1nnc(-c2cc3c(cc2F)S(=O)(=O)C[C@H](N)C(=O)N3Cc2ccc(-c3noc(C(F)(F)F)n3)cc2)o1)S(C)(=O)=O` [Example 28, (3R)-3-amino-8-fluoro-7-[5-(1-methyl-1-methylsulfonyl-ethyl)-1,3,4-oxadiazol-2-yl]-1,1-dioxo-5-[[4-[5-(trifluoromethyl)-1,2,4-oxadiazol-3-yl]phenyl]methyl]-2,3-dihydro-1λ6,5-benzothiazepin-4-one], in the test on primary human T-cells [1], the Emax was 307%. Besides, the EC50 in the test on primary human T-cells [1] came out at 185 nM. In addition, the results for the IC50 against DGKalpha and against DGKzeta were 1160 nM and 573 nM, respectively.

Take `CC(C)(c1nnc(-c2cc3c(cc2F)S(=O)(=O)C[C@H](N)C(=O)N3Cc2ccc(-c3ccc(C(F)(F)F)cn3)cc2)o1)S(C)(=O)=O` [Example 25, (3R)-3-amino-8-fluoro-7-[5-(1-methyl-1-methylsulfonyl-ethyl)-1,3,4-oxadiazol-2-yl]-1,1-dioxo-5-[[4-[5-(trifluoromethyl)-2-pyridyl]phenyl]methyl]-2,3-dihydro-1λ6,5-benzothiazepin-4-one]: in the test with primary human T-cells [1], the Emax stood at 244% and the EC50 was found to be 566 nM.

Turning to `CC(C)(c1nnc(-c2ccc3c(c2)N(Cc2ccc(OCc4cccc(F)c4)cc2)C(=O)[C@@H](N)CS3(=O)=O)o1)S(C)(=O)=O` [Example 13, (3R)-3-amino-5-[[4-[(3-fluorophenyl)methoxy]phenyl]methyl]-7-[5-(1-methyl-1-methylsulfonyl-ethyl)-1,3,4-oxadiazol-2-yl]-1,1-dioxo-2,3-dihydro-1λ6,5-benzothiazepin-4-one], in the test with primary human T-cells [1], the Emax came out at 181% and the EC50 stood at 1300 nM. Moreover, in the test with primary human T-cells [2], the Emax was 92% and the EC50 was determined as 1140 nM.

For `CC(C)(c1nnc(-c2ccc3c(c2)N(Cc2ccc(COc4ccccc4)cc2)C(=O)[C@@H](N)CS3(=O)=O)o1)S(C)(=O)=O` [Example 8, (3R)-3-amino-7-[5-(1-methyl-1-methylsulfonyl-ethyl)-1,3,4-oxadiazol-2-yl]-1,1-dioxo-5-[[4-(phenoxymethyl)phenyl]methyl]-2,3-dihydro-1λ6,5-benzothiazepin-4-one], the Emax was determined as 177% in the test on primary human T-cells [1] and 174% in the test with primary human T-cells [2].

As to `CC(C)N(C)c1ccc(CN2C(=O)[C@@H](N)CS(=O)(=O)c3ccc(-c4nnc(C(C)(C)S(C)(=O)=O)o4)cc32)cc1` [Example 18, (3R)-3-amino-5-[[4-[isopropyl(methyl)amino]phenyl]methyl]-7-[5-(1-methyl-1-methylsulfonyl-ethyl)-1,3,4-oxadiazol-2-yl]-1,1-dioxo-2,3-dihydro-126,5-benzothiazepin-4-one], in the test with primary human T-cells [1], the Emax is 46% and the EC50 is above 10000 nM. Also, in the test on primary human T-cells [2], the Emax came to 63% and the EC50 turned out to be 6350 nM.

The values are drawn from patent US20260035364A1, “BICYCLIC TETRAHYDROTHIAZEPINE DERIVATIVES” (Hoffmann-La Roche Inc., priority 2022, published 2026).
